According to patent US11279761B2, “Anti-PD-L1 combinations for treating tumors” (BIRDIE BIOPHARMACEUTICALS, INC., priority 2014, dated 2022):

Columns and labels:
C26 tumor = experiment: Combinational efficacy of anti-PD-L1 and R848 in PD-L1 expressed C26 tumor model (Study No. R-BDB001-0008); assay type: in vivo; conditions: C26 s.c. in BALB/c mice; single agent, 3-week period
Method: The objective of this study was to determine the single or combinational efficacy of R848 and anti-PD-L1 monoclonal antibody in the C26 tumor model in immune-competent mouse. C26 cells were inoculated by subcutaneous injection into the right flank of BALB/c mice on Day 0. Tumors were monitored until they reached a mean tumor volume of between 60 and 100 mm3, inclusive. Mice were administered, over a 3-week period, 10 mg/kg IV (via tail vein) of rat anti-mouse PD-L1 monoclonal antibody alone twice weekly, 0.08 mg/kg of R848 alone once weekly, or a combination of anti-PD-L1 antibody and R848.
The differences in tumor inhibition by the combination treatment compared to that of each component is shown graphically (FIG. 6)) and was highly significant (p=0.0029, anti-PDL1 and R848 combined versus R848 alone; p=0.0074, anti-PDL1 and R848 combined versus anti-PDL1 alone).

[1] = system: mouse colon adenocarcinoma 26 (C26) tumor; experiment: Combinational efficacy of R848 and anti-PD-1 antibody in PD-L1 expressed C26 tumor model; assay type: in vivo; conditions: C26 s.c. in BALB/c mice; single agent, three-week period
Method: The objective of this study was to determine the single or combinational efficacy of R848 and anti-PD-1 monoclonal antibody in the mouse colon adenocarcinoma 26 (C26) tumor model in immune-competent mouse. C26 cells were inoculated by subcutaneous injection into the right flank of BALB/c mice on Day 0. Tumors were monitored until they reached a mean tumor volume of between 60 and 100 mm3. Mice were then administered over a three-week period 10 mg/kg IV (via tail vein) of rat anti-mouse PD-1 monoclonal antibody alone twice weekly, 0.08 mg/kg of R848 alone once weekly, or a combination of anti-PD-1 antibody and R848. Tumor volumes were recorded twice weekly over the course of the study and the mice were observed regularly. Tumor-bearing mice (treatment, control) were sacrificed at Day 26 or if they became moribund before the tumor volume reached 2000 mm3. […] The differences in tumor inhibition by the combination treatment compared to that of each component is shown graphically (FIG. 5) and was highly significant (p=0.0002, anti-PD-1 and R848 combined versus R848 alone; p=0.0063 anti-PD-1 and R848 combined versus anti-PD-1 alone).

CCOCc1nc2c(N)nc3ccccc3c2n1CC(C)(C)O [R848, 4-amino-2-(ethoxymethyl)-a,a-di-methyl-1H-imidazo[4,5-c]quinoline-1-ethanol]
inhibition in tumor growth (C26 tumor): Limited inhibition | inhibition in tumor growth [1]: Limited inhibition
